Source: patent publication US20120184590A1, “FORMULATIONS OF INDOLE-3-CARBINOL DERIVED ANTITUMOR AGENTS WITH INCREASED ORAL BIOAVAILABILITY” (UNIVERSITY OF KANSAS, priority 2009, published 2012)
Entries after “also recorded” stand apart in the source; their conditions may differ. Marks after values point to notes of the source that are not given here.

Assay: Clinical observations and clinical pathology (liver enzymes) in monkeys
Assay type: in vivo, cynomolgus monkeys (macaca fasicularis)
Details: for ALT / AST / LDH: fed
Method: For both species, each animal was part of each experimental group, with a 7-day interval between treatments to allow for washout of the dosing formulation and its effects. Dosing formulations of SR13668 were administered by oral gavage (intragastric) or intravenous (i.v.) injection as a single dose or once daily for seven consecutive days. Oral to doses were administered at a dosing volume of 5 mL/kg of body weight, while intravenous doses were administered at a dosing volume of 0.5 mL/kg of body weight. Dogs were dosed with 93.6 mg/m^2 SR13668 intravenously in DMSO:PEG300 15:85 (v/v) or orally in Solutol® vehicle (two groups, fed and after an overnight fast). Monkeys were dosed with 84.2 mg/m^2 SR13668 intravenously in DMSO:PEG300 15:85 (v/v) or orally (336.7 mg/m^2 SR13668 for the oral high dose group) in PEG400:Labrasol® 1:1 (v/v) or Solutol® vehicles. Vehicle control groups were used to assess the tolerability of the vehicle and for clinical pathology evaluations.
At the end of each dosing period, the animals were examined for detailed clinical signs and symptoms (i.e., alterations of teeth, nose, eyes, perineum, pelage and body orifices; changes in appearance or behavior) and/or presence of any tissue masses. Body weights were recorded prior to treatment and daily during each testing interval. Quantitative (grams/day) food consumption data were recorded for dogs on a daily basis during each testing interval. Qualitative food consumption observations were recorded for monkeys on a daily basis during each testing interval. Blood samples for clinical pathology (clinical chemistry, hematology, and coagulation) parameter evaluation were collected from dogs and monkeys prior to dosing and on Days 2 and 8 post-dose, as well as from monkeys on Days 15 and 30 post-dose.

[1] = Day 2 (n = 2), 84.2 mg/m^2 (7.02 mg/kg) oral gavage daily days 1 through 7, PEG400:Labrasol 1:1 v/v
[2] = Day 8, 84.2 mg/m^2 (7.02 mg/kg) oral gavage daily days 1 through 7, PEG400:Labrasol 1:1 v/v
[3] = Day 15 (after discontinuation), 84.2 mg/m^2 (7.02 mg/kg) oral gavage daily days 1 through 7, PEG400:Labrasol 1:1 v/v
[4] = Day 30 (after discontinuation), 84.2 mg/m^2 (7.02 mg/kg) oral gavage daily days 1 through 7, PEG400:Labrasol 1:1 v/v
[5] = day 2 following a single dose, 84.2 mg/m^2 (7.02 mg/kg) iv, DMSO:PEG300 15:85 v/v
[6] = day 2 following a single dose, 84.2 mg/m^2 (7.02 mg/kg) oral gavage, Solutol
[7] = day 2 following a single dose, 336.7 mg/m^2 (28.06 mg/kg) oral gavage, PEG400:Labrasol 1:1 v/v
[8] = day 2 following a single dose, n = 4, 84.2 mg/m^2 (7.02 mg/kg) oral gavage, PEG400:Labrasol 1:1 v/v

With `CCOC(=O)c1ccc2[nH]c3c(OC)c4[nH]c5ccc(C(=O)OCC)cc5c4cc3c2c1` [SR13668, 2,10-dicarbethoxy-6-methoxy-5,7-dihydro-indolo-(2,3-b)carbazole] the “adverse treatment-related clinical observations” value was “soft stools and diarrhea in orally but not i.v. dosed monkeys”, the “effects on body weights, body weight gains or food consumption” value was “No significant treatment-related effects on body weights, body weight gains or food consumption” and the “effects on clinical pathology (clinical chemistry, hematology, coagulation)” value was “modest, reversible increase in liver function enzymes; also recorded: modest increases in liver enzymes”. The mortality or morbidity was “no mortalities or morbidity”, the ALT [1] was 112 ± 52 IU/L and the AST [1] was 234 ± 115 IU/L. For the same compound, the LDH [1] was 1022 ± 401 IU/L, the ALT [2] was 100 ± 38 ^a IU/L and the AST [2] was 178 ± 86 ^b IU/L. The LDH [2] was 1035 ± 596 IU/L, the ALT [3] was 41.3 ± 10 IU/L and the AST [3] was 24.0 ± 2.9 IU/L. The LDH [3] was 184 ± 39 IU/L, the ALT [4] was 33.3 ± 2.2 IU/L and the AST [4] was 22.5 ± 4.3 IU/L. The LDH [4] was 168 ± 39 IU/L, the “reversibility of liver enzyme increases” value (LDH, ALT, AST) was “reversible on discontinuation of dosing” and the ALT [5] was 88.5 ± 37 IU/L. The AST [5] was 134 ± 41 ^b IU/L, the LDH [5] was 730 ± 210 ^c IU/L and the ALT [6] was 95.5 ± 33 IU/L. For the same compound, the AST [6] was 150 ± 40 ^b IU/L, the LDH [6] was 779 ± 403 IU/L and the ALT [7] was 108 ± 28 ^a IU/L. For the same compound, the AST [7] was 188 ± 34 ^b IU/L, the LDH [7] was 753 ± 242 ^c IU/L and the ALT [8] was 86.0 ± 24 IU/L. The AST [8] was 138 ± 75 IU/L and the LDH [8] was 795 ± 455 IU/L.
